Data taken from a compilation of properties of binary mixtures (doi:10.1021/je990135o).

Assay: excess molar enthalpy (molar enthalpy of mixing); xn = mol fraction of the nth substance listed
Conditions: 100 kPa

COCCOCCO + CCOC(=O)OCC
Conditions	excess molar enthalpy [kJ/mol]
298.15 K, x2 = 0.0388	0.073
298.15 K, x2 = 0.0748	0.141
298.15 K, x2 = 0.1392	0.251
298.15 K, x2 = 0.1952	0.346
298.15 K, x2 = 0.2444	0.429
298.15 K, x2 = 0.3267	0.529
298.15 K, x2 = 0.3927	0.612
298.15 K, x2 = 0.66	0.733
298.15 K, x2 = 0.7443	0.692
298.15 K, x2 = 0.7951	0.63
298.15 K, x2 = 0.8534	0.521
298.15 K, x2 = 0.8859	0.456
298.15 K, x2 = 0.9209	0.346
298.15 K, x2 = 0.9588	0.197
313.15 K, x2 = 0.0387	0.084
313.15 K, x2 = 0.1077	0.241
313.15 K, x2 = 0.1386	0.309
313.15 K, x2 = 0.1945	0.421
313.15 K, x2 = 0.2436	0.521
313.15 K, x2 = 0.3257	0.657
313.15 K, x2 = 0.3916	0.747
313.15 K, x2 = 0.4914	0.846
313.15 K, x2 = 0.6589	0.898
313.15 K, x2 = 0.7435	0.842
313.15 K, x2 = 0.7944	0.775
313.15 K, x2 = 0.8529	0.651
313.15 K, x2 = 0.8854	0.555
313.15 K, x2 = 0.9587	0.244

CCOCCO + CCOC(=O)OCC
Conditions	excess molar enthalpy [kJ/mol]
298.15 K, x2 = 0.0322	0.094
298.15 K, x2 = 0.0624	0.181
298.15 K, x2 = 0.1175	0.335
298.15 K, x2 = 0.1666	0.46
298.15 K, x2 = 0.2104	0.57
298.15 K, x2 = 0.2855	0.714
298.15 K, x2 = 0.4442	0.931
298.15 K, x2 = 0.5454	0.979
298.15 K, x2 = 0.7057	0.924
298.15 K, x2 = 0.8275	0.712
298.15 K, x2 = 0.8648	0.607
298.15 K, x2 = 0.9056	0.466
313.15 K, x2 = 0.0321	0.117
313.15 K, x2 = 0.0623	0.222
313.15 K, x2 = 0.0906	0.315
313.15 K, x2 = 0.1173	0.398
313.15 K, x2 = 0.2099	0.662
313.15 K, x2 = 0.285	0.831
313.15 K, x2 = 0.3469	0.946
313.15 K, x2 = 0.4436	1.07
313.15 K, x2 = 0.5447	1.13
313.15 K, x2 = 0.6146	1.13
313.15 K, x2 = 0.7052	1.06
313.15 K, x2 = 0.8271	0.808
313.15 K, x2 = 0.8645	0.692
313.15 K, x2 = 0.9054	0.518
313.15 K, x2 = 0.9503	0.3

CCOCCOCCO + CCOC(=O)OCC
Conditions	excess molar enthalpy [kJ/mol]
298.15 K, x2 = 0.1227	0.192
298.15 K, x2 = 0.1571	0.257
298.15 K, x2 = 0.2185	0.35
298.15 K, x2 = 0.2716	0.426
298.15 K, x2 = 0.3587	0.534
298.15 K, x2 = 0.4271	0.611
298.15 K, x2 = 0.528	0.684
298.15 K, x2 = 0.6911	0.701
298.15 K, x2 = 0.8173	0.59
298.15 K, x2 = 0.8995	0.412
298.15 K, x2 = 0.9307	0.313
298.15 K, x2 = 0.9641	0.178
313.15 K, x2 = 0.0443	0.083
313.15 K, x2 = 0.1222	0.24
313.15 K, x2 = 0.1566	0.321
313.15 K, x2 = 0.2313	0.457
313.15 K, x2 = 0.2708	0.527
313.15 K, x2 = 0.3578	0.658
313.15 K, x2 = 0.4261	0.733
313.15 K, x2 = 0.527	0.825
313.15 K, x2 = 0.6257	0.846
313.15 K, x2 = 0.7697	0.771
313.15 K, x2 = 0.8167	0.698
313.15 K, x2 = 0.8699	0.582
313.15 K, x2 = 0.8991	0.488
313.15 K, x2 = 0.9304	0.365

COCCO + CCOC(=O)OCC
298.15 K
Conditions	excess molar enthalpy [kJ/mol]
x2 = 0.0263	0.094
x2 = 0.0264	0.08
x2 = 0.0512	0.183
x2 = 0.0514	0.152
x2 = 0.075	0.254
x2 = 0.0975	0.334
x2 = 0.0978	0.281
x2 = 0.1395	0.468
x2 = 0.1398	0.407
x2 = 0.1777	0.579
x2 = 0.1781	0.498
x2 = 0.2454	0.642
x2 = 0.3017	0.872
x2 = 0.3023	0.746
x2 = 0.3933	1.03
x2 = 0.3941	0.881
x2 = 0.4931	1.12
x2 = 0.4939	0.964
x2 = 0.5646	1.15
x2 = 0.5653	0.993
x2 = 0.6605	1.11
x2 = 0.6611	0.964
x2 = 0.7217	1.03
x2 = 0.7223	0.914
x2 = 0.796	0.788
x2 = 0.8384	0.763
x2 = 0.8388	0.688
x2 = 0.8861	0.595
x2 = 0.8864	0.539
x2 = 0.9396	0.352
x2 = 0.9398	0.321

CCCCOCCO + CCOC(=O)OCC
298.15 K
Conditions	excess molar enthalpy [kJ/mol]
x2 = 0.043	0.168
x2 = 0.0431	0.159
x2 = 0.0824	0.318
x2 = 0.0827	0.296
x2 = 0.1188	0.448
x2 = 0.1191	0.41
x2 = 0.2123	0.742
x2 = 0.2129	0.681
x2 = 0.265	0.8
x2 = 0.3503	1.06
x2 = 0.351	0.959
x2 = 0.4181	1.16
x2 = 0.4189	1.05
x2 = 0.5196	1.12
x2 = 0.6138	1.12
x2 = 0.618	1.24
x2 = 0.6832	1.18
x2 = 0.7639	1.03
x2 = 0.7644	0.95
x2 = 0.8118	0.911
x2 = 0.8123	0.846
x2 = 0.8661	0.723
x2 = 0.8665	0.665
x2 = 0.8961	0.596
x2 = 0.8964	0.56
x2 = 0.9228	0.248
x2 = 0.9283	0.444
x2 = 0.9285	0.416

CCCCOCCOCCO + CCOC(=O)OCC
Conditions	excess molar enthalpy [kJ/mol]
298.15 K, x2 = 0.0553	0.091
298.15 K, x2 = 0.1047	0.181
298.15 K, x2 = 0.1493	0.251
298.15 K, x2 = 0.1896	0.332
298.15 K, x2 = 0.2598	0.445
298.15 K, x2 = 0.3188	0.523
298.15 K, x2 = 0.4125	0.63
298.15 K, x2 = 0.4834	0.69
298.15 K, x2 = 0.584	0.736
298.15 K, x2 = 0.6781	0.734
298.15 K, x2 = 0.8081	0.628
298.15 K, x2 = 0.8488	0.549
298.15 K, x2 = 0.8939	0.437
298.15 K, x2 = 0.9182	0.37
298.15 K, x2 = 0.944	0.268
298.15 K, x2 = 0.9712	0.149
313.15 K, x2 = 0.1043	0.218
313.15 K, x2 = 0.1488	0.311
313.15 K, x2 = 0.3179	0.625
313.15 K, x2 = 0.4114	0.733
313.15 K, x2 = 0.4823	0.809
313.15 K, x2 = 0.583	0.858
313.15 K, x2 = 0.6772	0.854
313.15 K, x2 = 0.7366	0.806
313.15 K, x2 = 0.8075	0.716
313.15 K, x2 = 0.8935	0.501
313.15 K, x2 = 0.9179	0.407
313.15 K, x2 = 0.9438	0.299
313.15 K, x2 = 0.9711	0.164
